Experimental data published in the supplement of paper PMC10307832.

Tests used:
Assay in all cases: relative viability (nuclei count vs DMSO), 5 days (fraction); higher = more cells survive
[1] = compound: Cc1ccc(C(=O)Nc2ccc(CN3CCN(C)CC3)c(C(F)(F)F)c2)cc1C#Cc1cnc2cccnn12 [Ponatinib] + CS(=O)(=O)N1CCN(Cc2cc3nc(-c4cccc5[nH]ncc45)nc(N4CCOCC4)c3s2)CC1 [Pictilisib] (partner 1 µM)
Method in brief: (§1)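 Relative viability divides the nuclei count in treated wells by that in vehicle wells. Lung cancer cell lines were seeded in 1536-well plates, dosed by pin tool the next day, and fixed and stained after 5 days in one step with final 0.05% Triton X-100, 1% formaldehyde and 1 ug/ml Hoechst. Dosing was a single drug or a fixed anchor-drug dose plus five library-drug doses (not always all listed) in √10 steps, and values are medians of duplicate plates imaged at 4×.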

[2] = compound: Cc1ccc(Nc2nccc(N(C)c3ccc4c(C)n(C)nc4c3)n2)cc1S(N)(=O)=O [Pazopanib] + COc1cc2c(Oc3ccc(NC(=O)C4(C(=O)Nc5ccc(F)cc5)CC4)cc3F)ccnc2cc1OCCCN1CCOCC1 [Foretinib] (partner 0.25 µM)
Method in brief: as §1

[3] = compound: Cc1ccc(Nc2nccc(N(C)c3ccc4c(C)n(C)nc4c3)n2)cc1S(N)(=O)=O [Pazopanib] + N=C(N)NC(=N)NCCc1ccccc1 [Phenformin] (partner 250 µM)
Method in brief: as §1

[4] = compound: Cc1ccc(Nc2nccc(N(C)c3ccc4c(C)n(C)nc4c3)n2)cc1S(N)(=O)=O [Pazopanib] + Nc1nc2[nH]cc(CCc3ccc(C(=O)N[C@@H](CCC(=O)O)C(=O)O)cc3)c2c(=O)[nH]1 [Pemetrexed] (partner 0.2 µM)
Method in brief: as §1

## UMC-11
[1]; first compound 0.002 µM
  relative viability: 0.809
[1]; first compound 0.006325 µM
  relative viability: 0.933
[1]; first compound 0.06325 µM
  relative viability: 0.766
[1]; first compound 0.2 µM
  relative viability: 0.831
[2]; first compound 0.01 µM
  relative viability: 0.958
[2]; first compound 0.03162 µM
  relative viability: 1.16
[2]; first compound 0.1 µM
  relative viability: 1.19
[2]; first compound 0.3162 µM
  relative viability: 1.07
[2]; first compound 1 µM
  relative viability: 1.13
[3]; first compound 0.01 µM
  relative viability: 0.347
[3]; first compound 0.03162 µM
  relative viability: 0.339
[3]; first compound 0.1 µM
  relative viability: 0.361
[3]; first compound 0.3162 µM
  relative viability: 0.32
[3]; first compound 1 µM
  relative viability: 0.341
[4]; first compound 0.01 µM
  relative viability: 0.743
[4]; first compound 0.03162 µM
  relative viability: 0.908
[4]; first compound 0.1 µM
  relative viability: 0.871
[4]; first compound 0.3162 µM
  relative viability: 0.701
[4]; first compound 1 µM
  relative viability: 0.844
